Assay results from patent US11524096B2, “Wetting agent formulation” (TELEFLEX LIFE SCIENCES PTE. LTD., priority 2016, dated 2022).

Assays:
[1] = Relative dissolution of propyl gallate depending on sequence of mixing steps; format: physicochemical
Source text: In the case where glycerol is employed, it may be necessary to add some heat to the solution in order to achieve full dissolution of the propyl gallate. Further, the sequence of the mixing steps and its effect on the relative dissolution of propyl gallate when all component concentrations and temperature are kept constant, is as follows: • Addition of propylene glycol to propyl gallate, then addition of saline or distilled water: fast reaction (high rate of dissolution of propyl gallate); • Addition of saline/distilled water to propyl gallate, then addition of propylene glycol: slow reaction (low rate of dissolution of propyl gallate); • Addition of propylene glycol to saline/distilled water, then addition of propyl gallate: fast reaction (high rate of dissolution of propyl gallate); • Employing glycerol instead of propylene glycol: slow reaction (low rate of dissolution of propyl gallate).

[2] = without propylene glycol; cited from earlier work

- rate of dissolution of propyl gallate ([1]; Addition of propylene glycol to propyl gallate, then addition of saline or distilled water, concentrations and temperature constant): fast reaction
- rate of dissolution of propyl gallate ([1]; Addition of propylene glycol to saline/distilled water, then addition of propyl gallate): fast reaction
- rate of dissolution of propyl gallate ([1]; Addition of saline/distilled water to propyl gallate, then addition of propylene glycol): slow reaction
- rate of dissolution of propyl gallate ([1]; Employing glycerol instead of propylene glycol): slow reaction
Compound: CCCOC(=O)c1cc(O)c(O)c(O)c1 [PG, propyl 3,4,5-trihydroxybenzoate]
- solubility in water (in words) [2]: only slightly soluble
